Results published in patent publication US7053057B2, “Caspase inhibitors and uses thereof” (Vertex Pharmaceuticals Incorporated, priority 2000, dated 2006).
Square brackets hold non-standard residues; d marks the D form. Peptide text beside a SMILES is read from it. * marks the point of attachment. Cbz = O=C(OCc1ccccc1)*; Thz = O=C(O)[CH]1CSCN1; CH2F = FC*

Legend:
cortical neurons = assay: Hypoxia-induced apoptosis of cortical neurons assay; format: cell-based, Wistar rat; settings: Cortical neurone; rat embryo cortical neurons, hypoxia 42 hours, DNA fragmentation ELISA
Description: Apoptosis can be induced by growth factor withdrawal and by hypoxia. This assay measures the extent of DNA fragmentation indicating the effectiveness of caspase inhibitors to prevent apoptosis. Experimental Procedure Cortical neurons were dissociated from Wistar rat embryos (E17) by a modification of the procedure of Rogers et al 1997, Brain Res Bulletin 44:131. Cerebral cortices were isolated aseptically from 15–20 Wistar rat embryos. A cell suspension was prepared by mincing the cerebral cortices and digesting them with papain. Cells were washed with ovomucoid enzyme inhibitor and DNaseI and plated onto Poly D lysine coated plates in high glucose DMEM containing 10% heat-inactivated foetal calf serum, L-glutamine, penicillin and streptomycin. The yield of neurons was 10^7 per embryo and they were 80–90% viable as assessed by Trypan blue exclusion.
Cells were seeded at 1×10^6 cells per cm^2 in 96-well plates and cultured in complete medium (in high glucose DMEM containing 10% heat-inactivated foetal calf serum, L-glutamine, penicillin and streptomycin) at 37° C. in a normal atmosphere for 48 hours prior to the hypoxia experiments. Hypoxia was performed as described (Tamatani et al.1998, Molecular Brain Research, 58:27). The normal cell medium was replaced by hypoxic medium and cells were incubated in an atmosphere of 95% N2/5% CO2 for 42 hours. For compound testing, compounds were dissolved in DMSO at 100 mM then diluted in medium and added to the culture at the beginning of the hypoxic period. Apoptosis was measured using an ELISA assay to detect DNA fragmentation (Roche). Controls included cells cultured in aerobic conditions in serum-containing medium.

[1] = target: T1, recombinant, purified human Caspase-1 (Homo sapiens, UniProt P29466); assay: Caspase-1 enzyme inhibition assay (fluorogenic substrate cleavage); format: biochemical; settings: second order rate constant of enzyme inactivation; substrate Acetyl-Tyr-Val-Ala-Asp-amino-4-methylcoumarin
T1 sequence (P29466 120-297 limits assumed): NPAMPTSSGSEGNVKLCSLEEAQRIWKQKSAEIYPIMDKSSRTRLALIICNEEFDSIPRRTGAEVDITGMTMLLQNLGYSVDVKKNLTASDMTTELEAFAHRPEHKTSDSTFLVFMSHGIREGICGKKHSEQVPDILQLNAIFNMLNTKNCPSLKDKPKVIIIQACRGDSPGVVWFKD
T1 sequence (P29466 317-404 limits assumed): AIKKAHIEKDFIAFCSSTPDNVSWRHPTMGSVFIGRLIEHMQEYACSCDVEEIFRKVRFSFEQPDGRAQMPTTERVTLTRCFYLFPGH
Source text: (§1) The assays for caspase inhibition are based on the cleavage of a fluorogenic substrate by recombinant, purified human Caspases -1, -3, or -8. The assays are run in essentially the same way as those reported by Garcia-Calvo et al. (J. Biol. Chem. 273 (1998), 32608–32613), using a substrate specific for each enzyme. The substrate for Caspase-1 is Acetyl-Tyr-Val-Ala-Asp-amino-4-methylcoumarin (SEQ ID NO:1). The substrate for Caspases -3, and -8 is Acetyl-Asp-Glu-Val-Asp-amino-4-methylcoumarin (SEQ ID NO:2).
(§2) The observed rate of enzyme inactivation at a particular inhibitor concentration, kobs, is computed by direct fits of the data to the equation derived by Thornberry et al. (Biochemistry 33 (1994), […]) using a nonlinear least-squares analysis computer program (PRISM 2.0; GraphPad software). To obtain the second order rate constant, kinact, kobs values are plotted against their respective inhibitor concentrations and kinact values are subsequently calculated by computerized linear regression.

[2] = target: recombinant, purified human Caspase-8 (Homo sapiens, UniProt Q14790); assay: Caspase-8 enzyme inhibition assay (fluorogenic substrate cleavage); format: biochemical; settings: second order rate constant of enzyme inactivation; substrate Acetyl-Asp-Glu-Val-Asp-amino-4-methylcoumarin
Source text: as §1, §2

[3] = tested on: IL-1β secretion from PBMC; assay: Inhibition of IL-1β secretion from mixed population of PBMC; format: cell-based; settings: human PBMC, LPS 50 ng/ml, 16–18 h, mature IL-1β in supernatant
Description: Processing of pre-IL-1β by caspase-1 can be measured in cell culture using a variety of cell sources. Human PBMC obtained from healthy donors provides a mixed population of lymphocyte and mononuclear cells that produce a spectrum of interleukins and cytokines in response to many classes of physiological stimulators.
The test compound is dissolved in Dimethyl Sulphoxide (DMSO,Sigma #D-2650) to give a 100 mM stock solution. This is diluted in complete medium consisting of RPMI containing 10% heat inactivated FCS (Gibco BRL #10099-141), 2 mM L-Glutamine (Sigma, #G-7513), 100U penicillin and 100 μg/ml streptomycin (Sigma #P-7539). The final concentration range of test compound is from 100 μM down to 6 nM over eight dilution steps. The highest concentration of test compound is equivalent to 0.1% DMSO in the assay.
Human PBMC are isolated from Buffy Coats obtained from the blood bank using centrifugation on Ficoll-Paque leukocyte separation medium (Amersham, #17-1440-02) and the cellular assay is performed in a sterile 96 well flat-bottomed plate (Nunc). Each well contains 100 μl of the cell suspension, 1×10^5 cells, 50 µl of compound dilutions and 50 μl of LPS (Sigma #L-3012) at 50 ng/ml final concentration. Controls consist of cells +/−LPS stimulation and a serial dilution of DMSO diluted in the same way as compound. The plates are incubated for 16–18 h at 37° C. in 5% CO2 & 95% humidity atmosphere.
After 16–18 h the supernatants are harvested after centrifuging the plates at 100×g at 18° C. for 15 min and assayed for their IL-1β content. Measurement of mature IL-1[…] in the supernatant is performed using the Quantikine kits (R&D Systems) according to manufacturer's instructions. Mature IL-1β levels of about 600–1500 pg/ml are observed for PBMCs in positive control wells.
The inhibitory potency of the compounds can be represented by an IC50 value, which is the concentration of inhibitor at which 50% of the mature IL-1β is detected in the supernatant as compared to the positive controls.

[4] = target: T2, recombinant, purified human Caspase-3 (Homo sapiens, UniProt P42574); assay: Caspase-3 enzyme inhibition assay (fluorogenic substrate cleavage); format: biochemical; settings: second order rate constant of enzyme inactivation; substrate Acetyl-Asp-Glu-Val-Asp-amino-4-methylcoumarin
T2 sequence (P42574 29-175 limits assumed): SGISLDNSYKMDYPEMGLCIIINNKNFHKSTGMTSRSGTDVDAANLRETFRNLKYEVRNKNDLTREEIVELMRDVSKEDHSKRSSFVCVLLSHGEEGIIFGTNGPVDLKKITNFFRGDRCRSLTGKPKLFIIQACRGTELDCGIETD
T2 sequence (P42574 176-277 limits assumed): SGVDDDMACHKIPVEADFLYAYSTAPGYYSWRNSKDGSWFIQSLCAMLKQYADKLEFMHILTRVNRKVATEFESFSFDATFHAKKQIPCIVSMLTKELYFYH
Source text: The assays for caspase inhibition are based on the cleavage of a fluorogenic substrate by recombinant, purified human Caspases -1, -3, or -8.
To obtain the second order rate constant, kinact, kobs values are plotted against their respective inhibitor concentrations and kinact values are subsequently calculated by computerized linear regression.

Sequence of recombinant, purified human Caspase-8 (Q14790 217-374 limits assumed): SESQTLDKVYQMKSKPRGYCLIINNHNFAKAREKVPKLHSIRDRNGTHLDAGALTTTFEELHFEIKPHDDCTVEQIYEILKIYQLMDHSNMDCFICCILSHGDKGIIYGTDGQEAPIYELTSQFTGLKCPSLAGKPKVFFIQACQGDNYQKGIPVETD
Sequence of recombinant, purified human Caspase-8 (Q14790 385-479 limits assumed): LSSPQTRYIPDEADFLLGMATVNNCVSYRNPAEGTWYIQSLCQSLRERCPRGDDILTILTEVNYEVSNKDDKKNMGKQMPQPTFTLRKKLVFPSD

| C-3 Kinact [4] | SMILES | IC50 (cortical neurons) | C-1 Kinact [1] | C-8 Kinact [2] | IC50 [3] |
| --- | --- | --- | --- | --- | --- |
| – | CC(C)[C@H](NC(=O)OCc1ccc(Cl)cc1)C(=O)NC(CC(=O)O)C(=O)CF (stereo partly drawn) [4-ClCbz-Val-Asp-fmk] | 1980 nM | 69 × 1000 M^−1s^−1 | 175 × 1000 M^−1s^−1 | – |
| – | O=C(O)CC(NC(=O)C1CCCN1C(=O)OCc1ccccc1)C(=O)CF (stereo not drawn) [Cbz-Pro-Asp-fmk] (Cbz-Pro-Asp-CH2F; configuration not given here) | 2780 nM | 7.5 × 1000 M^−1s^−1 | 15.5 × 1000 M^−1s^−1 | > 10000 nM |
| – | O=C(O)CC(NC(=O)C1CSCN1C(=O)OCc1ccccc1)C(=O)CF (stereo not drawn) [Cbz-Thz-Asp-fmk] (Cbz-[Thz]-Asp-CH2F; configuration not given here) | 1560 nM | 227.5 × 1000 M^−1s^−1 | 12 × 1000 M^−1s^−1 | 2310 nM |
| 239.5 × 1000 M^−1s^−1 | O=C(O)CC(NC(=O)[C@@H]1CCc2ccccc2N1C(=O)OCc1ccccc1)C(=O)CF (stereo partly drawn) [Example 3, [3S/R,(2S)]-3-(1-Benzyloxycarbonyl-1,2,3,4-tetrahydro-quinolinyl-2-carboxamido)-5-fluoro-4-oxo-pentanoic acid] | – | 318 × 1000 M^−1s^−1 | 122 × 1000 M^−1s^−1 | 1150 nM |
| – | O=C(O)CC(NC(=O)[C@@H]1CCCCN1C(=O)OCc1cccc(Cl)c1)C(=O)CF (stereo partly drawn) [Example 5, [3S/R,(2S)]-3-(1-(3-Chlorobenzyloxycarbonyl)-2-piperidinecarboxamido)-5-fluoro-4-oxo-pentanoic acid] | – | – | – | 500 nM |
| – | O=C(O)CC(NC(=O)[C@@H]1CCCCN1C(=O)OCc1cc(Cl)ccc1Cl)C(=O)CF (stereo partly drawn) [Example 23, [3S/R,(2S)]-5-Fluoro-3-(1-(2,5-dichlorobenzyloxycarbonyl)-2-piperidinecarboxamido)-4-oxo-pentanoic acid] | 336 nM | – | – | – |
| 181 × 1000 M^−1s^−1 | O=C(O)CC(NC(=O)[C@@H]1CCCCN1C(=O)O[C@H](c1cccc(Cl)c1)C(F)(F)F)C(=O)CF (stereo partly drawn) [Example 34] | 463 nM | 518 × 1000 M^−1s^−1 | 839 × 1000 M^−1s^−1 | – |
